In patent publication US20250120967A1, “TYROSINE KINASES INHIBITORS AND USES THEREOF” (GREAT NOVEL THERAPEUTICS BIOTECH & MEDICALS CORPORATION, priority 2023, published 2025):

Assays:
Assay in all cases: NCI-60 screen (SRB)
Type in all cases: cell-based
MALME-3M = settings: Homo sapiens, Melanoma
Method: (§1) The human tumor cell lines of the cancer screening panel are grown in RPMI 1640 medium containing 5% fetal bovine serum and 2 mM L-glutamine. For a typical screening experiment, cells are inoculated into 96 well microtiter plates in 100 μL at plating densities ranging from 5,000 to 40,000 cells/well depending on the doubling time of individual cell lines. After cell inoculation, the microtiter plates are incubated at 37° C., 5% CO2, 95% air and 100% relative humidity for 24 h prior to addition of experimental drugs. After 24 h, two plates of each cell line are fixed in situ with TCA, to represent a measurement of the cell population for each cell line at the time of drug addition (Tz). Experimental drugs are solubilized in dimethyl sulfoxide at 400-fold the desired final maximum test concentration and stored frozen prior to use. At the time of drug addition, an aliquot of frozen concentrate is thawed and diluted to twice the desired final maximum test concentration with complete medium containing 50 µg/ml gentamicin. An additional four, 10-fold or M log serial dilutions are made to provide a total of five drug concentrations plus control. Aliquots of 100 μl of these different drug dilutions are added to the appropriate microtiter wells already containing 100 μl of medium, resulting in the required final drug concentrations. Following drug addition, the plates are incubated for an additional 48 h at 37° C., 5% CO2, 95% air, and 100% relative humidity. For adherent cells, the assay is terminated by the addition of cold TCA. Cells are fixed in situ by the gentle addition of 50 μl of cold 50% (w/v) TCA (final concentration, 10% TCA) and incubated for 60 minutes at 4° C. The supernatant is discarded, and the plates are washed five times with tap water and air dried. Sulforhodamine B (SRB) solution (100 l) at 0.4% (w/v) in 1% acetic acid is added to each well, and plates are incubated for 10 minutes at room temperature. After staining, unbound dye is removed by washing five times with 1% acetic acid and the plates are air dried. Bound stain is subsequently solubilized with 10 mM trizma base, and the absorbance is read on an automated plate reader at a wavelength of 515 nm. For suspension cells, the methodology is the same except that the assay is terminated by fixing settled cells at the bottom of the wells by gently adding 50 μl of 80% TCA (final concentration, 16% TCA).

NCI/ADR-RES = settings: Homo sapiens, Ovarian Cancer
Method: as §1

SF-539 = settings: Homo sapiens; SF-539, CNS Cancer
Method: as §1

LOX IMVI = settings: Homo sapiens, Melanoma
Method: as §1

COLO 205 = settings: Homo sapiens; COLO 205, Colon Cancer
Method: as §1

SK-MEL-5 = settings: Homo sapiens; SK-MEL-5, Melanoma
Method: as §1

UACC-257 = settings: Homo sapiens; UACC-257, Melanoma
Method: as §1

NCI-H23 = settings: Homo sapiens; NCI-H23, Non-Small Cell Lung Cancer
Method: as §1

OVCAR-5 = settings: Homo sapiens; OVCAR-5, Ovarian Cancer
Method: as §1

T-47D = settings: Homo sapiens, T47D, Breast Cancer
Method: as §1

NCI-H226 = settings: Homo sapiens; NCI-H226, Non-Small Cell Lung Cancer
Method: as §1

SN12C = settings: Homo sapiens, Renal Cancer
Method: as §1

U251 = settings: Homo sapiens, U-251; U251, CNS Cancer
Method: as §1

MDA-MB-231/ATCC = settings: Homo sapiens, Breast Cancer
Method: as §1

SR = settings: Homo sapiens, Leukemia
Method: as §1

SNB-19 = settings: Homo sapiens; SNB-19, CNS Cancer
Method: as §1

MCF7 = settings: Homo sapiens; MCF7, Breast Cancer
Method: as §1

HS 578T = settings: Homo sapiens, Breast Cancer
Method: as §1

UO-31 = settings: Homo sapiens; UO-31, Renal Cancer
Method: as §1

OVCAR-4 = settings: Homo sapiens; OVCAR-4, Ovarian Cancer
Method: as §1

HCT-116 = settings: Homo sapiens; HCT-116, Colon Cancer
Method: as §1

MDA-MB-468 = settings: Homo sapiens; MDA-MB-468, Breast Cancer
Method: as §1

SK-MEL-2 = settings: Homo sapiens; SK-MEL-2, Melanoma
Method: as §1

MDA-MB-435 = settings: Homo sapiens; MDA-MB-435, Melanoma
Method: as §1

SW-620 = settings: Homo sapiens; SW-620, Colon Cancer
Method: as §1

CCRF-CEM = settings: Homo sapiens, Leukemia
Method: as §1

M14 = settings: Homo sapiens; M14, Melanoma
Method: as §1

HCC-2998 = settings: Homo sapiens; HCC-2998, Colon Cancer
Method: as §1

786-0 = settings: Homo sapiens; 786-0, Renal Cancer
Method: as §1

SK-MEL-28 = settings: Homo sapiens; SK-MEL-28, Melanoma
Method: as §1

**Q.** For `COc1cc2nccc(Oc3ccc(NC(=O)C4(NC(=O)c5ccc(F)cc5)CC4)cc3F)c2cc1OC` [Cbo-02, N-(1-((4-((6,7-diMethoxyquinolin-4-yl)oxy)-3-fluorophenyl)carbamoyl)cyclopropyl)-4-fluorobenzamide], which GI50 (MALME-3M) is on record?
**A.** 1740 nM

**Q.** And the GI50 (NCI/ADR-RES)?
**A.** 4900 nM

**Q.** And the GI50 (SF-539)?
**A.** 1690 nM

**Q.** And the GI50 (LOX IMVI)?
**A.** 1990 nM

**Q.** What about the GI50 (COLO 205) of the same compound?
**A.** 1750 nM

**Q.** What about the GI50 (SK-MEL-5) of the same compound?
**A.** 4010 nM

**Q.** And the GI50 (UACC-257)?
**A.** 2830 nM

**Q.** And the GI50 (NCI-H23)?
**A.** 2060 nM

**Q.** What about the GI50 (OVCAR-5) of the same compound?
**A.** 1910 nM

**Q.** And the GI50 (T-47D)?
**A.** 2120 nM

**Q.** And the GI50 (NCI-H226)?
**A.** 1580 nM

**Q.** And the GI50 (SN12C)?
**A.** 1210 nM

**Q.** And the GI50 (U251)?
**A.** 2880 nM

**Q.** And the GI50 (MDA-MB-231/ATCC)?
**A.** 1740 nM

**Q.** What about the GI50 (SR) of the same compound?
**A.** 3330 nM

**Q.** What about the GI50 (SNB-19) of the same compound?
**A.** 3520 nM

**Q.** What about the GI50 (MCF7) of the same compound?
**A.** 3260 nM

**Q.** And the GI50 (HS 578T)?
**A.** 2540 nM

**Q.** What about the GI50 (UO-31) of the same compound?
**A.** 2590 nM

**Q.** What about the GI50 (OVCAR-4) of the same compound?
**A.** 2380 nM

**Q.** And the GI50 (HCT-116)?
**A.** 1520 nM

**Q.** And the GI50 (MDA-MB-468)?
**A.** 1720 nM

**Q.** What about the GI50 (SK-MEL-2) of the same compound?
**A.** 6150 nM

**Q.** What about the GI50 (MDA-MB-435) of the same compound?
**A.** 1890 nM

**Q.** What about the GI50 (SW-620) of the same compound?
**A.** 1630 nM

**Q.** And the GI50 (CCRF-CEM)?
**A.** 2240 nM

**Q.** What about the GI50 (M14) of the same compound?
**A.** 1910 nM

**Q.** And the GI50 (HCC-2998)?
**A.** 2500 nM

**Q.** And the GI50 (786-0)?
**A.** 1980 nM

**Q.** What about the GI50 (SK-MEL-28) of the same compound?
**A.** 1610 nM

**Q.** Which results are given for `COc1cc2nccc(Oc3ccc(NC(=O)C4(NC(=O)c5ccc(F)cc5)CC4)cc3F)c2cc1Oc1ccc(N)cc1F` [Cbo-10]?
**A.** GI50 (MALME-3M): 313 nM; GI50 (NCI/ADR-RES): > 100000 nM; GI50 (SF-539): > 100000 nM; GI50 (LOX IMVI): 1780 nM; GI50 (COLO 205): 931 nM; GI50 (SK-MEL-5): 6970 nM; GI50 (UACC-257): 1720 nM; GI50 (NCI-H23): 1040 nM; GI50 (OVCAR-5): 644 nM; GI50 (T-47D): 1650 nM; GI50 (NCI-H226): 5290 nM; GI50 (SN12C): 111 nM; GI50 (U251): > 100000 nM; GI50 (MDA-MB-231/ATCC): 4430 nM; GI50 (SR): 345 nM; GI50 (SNB-19): > 100000 nM; GI50 (MCF7): 771 nM; GI50 (HS 578T): 5320 nM; GI50 (UO-31): 1810 nM; GI50 (OVCAR-4): > 100000 nM; GI50 (HCT-116): 2630 nM; GI50 (MDA-MB-468): 1730 nM; GI50 (SK-MEL-2): > 100000 nM; GI50 (MDA-MB-435): 737 nM; GI50 (SW-620): 661 nM; GI50 (CCRF-CEM): 436 nM; GI50 (M14): 1490 nM; GI50 (HCC-2998): 6040 nM; GI50 (786-0): > 100000 nM; GI50 (SK-MEL-28): 1810 nM

**Q.** `COc1cc2nccc(Oc3ccc(NC(=O)C4(C(=O)Nc5ccc(F)cc5)CC4)cc3F)c2cc1Oc1ccc(N)cc1F` [Cbo-23] was tested. Which GI50 (MALME-3M) did it give?
**A.** 298 nM

**Q.** What about the GI50 (NCI/ADR-RES) of the same compound?
**A.** 2040 nM

**Q.** And the GI50 (SF-539)?
**A.** 179 nM

**Q.** And the GI50 (LOX IMVI)?
**A.** 306 nM

**Q.** What about the GI50 (COLO 205) of the same compound?
**A.** 283 nM

**Q.** What about the GI50 (SK-MEL-5) of the same compound?
**A.** 1380 nM

**Q.** And the GI50 (UACC-257)?
**A.** 367 nM

**Q.** What about the GI50 (NCI-H23) of the same compound?
**A.** 339 nM

**Q.** And the GI50 (OVCAR-5)?
**A.** 389 nM

**Q.** What about the GI50 (T-47D) of the same compound?
**A.** 617 nM

**Q.** What about the GI50 (NCI-H226) of the same compound?
**A.** 276 nM

**Q.** And the GI50 (SN12C)?
**A.** 199 nM

**Q.** What about the GI50 (U251) of the same compound?
**A.** 2380 nM

**Q.** What about the GI50 (MDA-MB-231/ATCC) of the same compound?
**A.** 981 nM

**Q.** And the GI50 (SR)?
**A.** 93.8 nM

**Q.** What about the GI50 (SNB-19) of the same compound?
**A.** 3130 nM

**Q.** And the GI50 (MCF7)?
**A.** 294 nM

**Q.** And the GI50 (HS 578T)?
**A.** 148 nM

**Q.** And the GI50 (UO-31)?
**A.** 316 nM

**Q.** And the GI50 (OVCAR-4)?
**A.** 2580 nM

**Q.** And the GI50 (HCT-116)?
**A.** 592 nM

**Q.** And the GI50 (MDA-MB-468)?
**A.** 1120 nM

**Q.** And the GI50 (SK-MEL-2)?
**A.** 1360 nM

**Q.** And the GI50 (MDA-MB-435)?
**A.** 363 nM

**Q.** And the GI50 (SW-620)?
**A.** 449 nM

**Q.** And the GI50 (CCRF-CEM)?
**A.** 553 nM

**Q.** What about the GI50 (M14) of the same compound?
**A.** 459 nM

**Q.** And the GI50 (HCC-2998)?
**A.** 2280 nM

**Q.** And the GI50 (786-0)?
**A.** 860 nM

**Q.** What about the GI50 (SK-MEL-28) of the same compound?
**A.** 463 nM
